{"source": "patent US20050272738A1", "about": "“Combined treatment with oxaliplatin and an epidermal growth factor receptor kinase inhibitor” (priority 2004, published 2005)", "key": {"[1]": {"tested_on": "LoVo human colon xenograft", "experiment": "Anti-tumor efficacy in LoVo human colorectal xenograft in nude mice (experiments 525 and 540)", "assay_type": "in vivo, female athymic nu/nu mice", "source_text": "The goal of this study is to assess the anti-tumor efficacy of the small molecule epidermal growth factor receptor inhibitor (EGFRi) Tarceva™ in combination with oxalipaltin on LoVo colorectal human xenograft, grown in female athymic nu/nu mice. Oxaliplatin is an agent that is currently used clinically in the treatment of colorectal cancer alone and in combination with other chemotherapeutic agents and/or radiation, depending on the stage of disease. In this study, the drugs were combined at their respective maximum tolerated dose (MTD) and also combined together at sub-optimal doses. All doses included in the combination groups were also included in the study as monotherapy arms. The attempt was to achieve maximum efficacy/regression without increased toxicity.\n(§1) The health of all animals was determined daily by gross observation of experimental animals and by the analyses of blood samples of sentinel animals that were housed on the shared shelf racks. All animals were allowed to acclimate and recover from any shipping related stress for one week prior to experimental manipulation. […] Cages, bedding and water bottles were autoclaved before use and were changed weekly. […] All in vivo experiments were performed in accordance with protocols approved by the Roche Animal Care and Use Committee (RACUC). The Roche animal care facility is fully accredited by the American Association for the Accreditation of Lab Animal Care (AAALAC).\nLoVo cells were grown in F-12K+20% FBS (not heat inactivated) and harvested. 5×10^6 cells/0.2 ml/mouse in PBS (Phosphate Buffered Saline) were implanted subcutaneously in the right flank on Aug.\nFormulated compound was made up in one batch for the entire 3 week study.\nOxaliplatin was provided in clinical form. […] An aliquot of the stock vial solutions was taken for each dose group representing the drug needed for that group for the entire study duration and diluted out further with sterile saline, to provide a solution that renders a 0.2 ml dosing volume for each individual animal.\nFor study 540, animals were randomized according to tumor volume on day 17 post tumor implantation so that all groups had similar starting mean tumor volumes of 100-150 mm^3.\nFor efficacy study 540, treatment began on Sep. […] Tarceva™ was administered using a 1 cc syringe and 18-gauge gavage needles (0.2 ml/animal). Oxaliplatin was administered ip using a 1-cc syringe and 26-gauge needle (0.2 ml/animal). […] Treatment ended on Sep. […] No end of study drug exposure analysis was performed on this study.\n(§2) Tumor measurements and mouse weights were taken two-three times per week for LoVo. All animals were individually followed throughout the experiment.\nEfficacy data was graphically represented as the mean tumor volume+standard error of the mean (SEM).\nTumor volume (in cubic millimeters) was calculated using the ellipsoid formula: (D×(d2))/2 • where ‘D’ represents the large diameter of the tumor, and ‘d’ represents the small diameter.\nIn some cases, tumor regression and/or percent change in tumor volume was calculated using the formula: ((T−T0)/T0)×100 • where ‘T’ represents mean tumor volume of the treated group at a particular day and ‘T0’ represents mean tumor volume of the same treated group at initiation of treatment.\nStatistical analysis was determined by the rank sum test and One Way Anova and a post-hoc Bonferroni t-test (SigmaStat, version 2.0, Jandel Scientific, San Francisco, Calif.)."}, "[2]": {"experiment": "Toxicity in LoVo efficacy study 540 (body weight, deaths, clinical signs)", "assay_type": "in vivo, female nude mice", "conditions": "Tarceva 100 mg/kg (Group 2)", "protocol": "as §1\nFor efficacy study 540, treatment began on Sep. […] Tarceva™ was administered using a 1 cc syringe and 18-gauge gavage needles (0.2 ml/animal). Oxaliplatin was administered ip using a 1-cc syringe and 26-gauge needle (0.2 ml/animal). All groups were treated q7d for 3 weeks (total 3 injections). Treatment ended on Sep. […] No end of study drug exposure analysis was performed on this study.\nas §2"}, "[3]": {"experiment": "Maximum tolerated dose / tolerability of Tarceva in nude mice (MTD study and previous efficacy studies)", "assay_type": "in vivo, naïve female nude mice", "protocol": "Preliminary studies were performed in naïve female nude mice to determine the maximum tolerated dose (MTD) of Tarceva™. The MTD was defined as a dose that renders <20% body weight loss and no death in a 14 day study. […] Based on literature, a dosage for oxaliplatin of 10 mg/kg, once a week intraperitoneal was adopted in the study (Cividalli A, et al. (2002) Int. J. Radiat. Oncol. Biol. Phys. 52(4):1092-1098)."}, "colorectal cancer": {"tested_on": "colorectal cancer", "conditions": "cited from earlier work"}, "HCT116 tumor model": {"tested_on": "HCT116 tumor model", "conditions": "HCT116 model (data not shown)"}, "[4]": {"conditions": "Tarceva 100 mg/kg qd, LoVo, study 540"}, "[5]": {"conditions": "oxaliplatin 5 mg/kg q7d ip, LoVo, study 540"}, "[6]": {"conditions": "oxaliplatin 10 mg/kg q7d ip, LoVo, study 540"}}, "note": "“And” between values parts separate entries of the source, which are not always exact repeats. Equal entries are not always repeated. Where two headings read alike, the source gives them in different places.", "data": [{"smiles": "C#Cc1cccc(Nc2ncnc3cc(OCCOC)c(OCCOC)cc23)c1", "note": "[Tarceva™, [6,7-bis(2-methoxyethoxy)-4-quinazolin-4-yl]-(3-ethynylphenyl) amine]", "values": [{"measurement": "tumor growth inhibition", "setting": "[1]; Tarceva 25 mg/kg qd, LoVo, across experiments", "result": "53-79%"}, {"measurement": "% T/C", "setting": "[1]; Tarceva 25 mg/kg qd, LoVo, study 540", "result": 47, "unit": "%"}, {"measurement": "tumor growth inhibition", "setting": "[1]; Tarceva 25 mg/kg qd, LoVo, study 540, day 39 post tumor implant", "result": 53, "unit": "%"}, {"measurement": "% T/C", "setting": "[1]; [4]", "result": 2, "unit": "%"}, {"measurement": "number of partial regressions", "setting": "[1]; [4]", "result": "four"}, {"measurement": "partial regressions (percent, in brackets)", "setting": "[1]; [4]", "result": "16% and 7%"}, {"measurement": "tumor growth inhibition (TGI)", "setting": "[1]; Tarceva 100 mg/kg qd, LoVo, study 540, day 39 post tumor implant", "result": 98, "unit": "%"}, {"measurement": "tumors partially regressed", "setting": "[1]; Tarceva 100 mg/kg, LoVo, experiments 525 and 540", "result": "40-60%"}, {"measurement": "tumor growth inhibition (TGI)", "setting": "[1]; erlotinib 25 mg/kg monotherapy, LoVo (summary value)", "result": 79, "unit": "%"}, {"measurement": "mice showing partial regressions (PR)", "setting": "[1]; erlotinib 100 mg/kg monotherapy, LoVo", "result": "6/10"}, {"measurement": "tumor growth inhibition (TGI)", "setting": "[1]; erlotinib 100 mg/kg monotherapy, LoVo, experiment 525", "result": "> 100", "unit": "%"}, {"measurement": "clinical signs", "setting": "[2]", "result": "classic reddening of the skin"}, {"measurement": "maximum tolerated dose (MTD)", "setting": "[3]; CMC/Tween formulation, 14 day study, MTD = <20% body weight loss and no death", "result": 100, "unit": "mg/kg qd"}, {"measurement": "toxicity at 200 mg/kg qd", "setting": "[3]; CMC/Tween formulation, MTD study", "result": "showing toxicity"}, {"measurement": "tolerability at 150 mg/kg once a day", "setting": "[3]; CMC/Tween, 3 weeks, previous efficacy studies", "result": "tolerated well"}]}, {"smiles": "O=c1[nH]cc(F)c(=O)[nH]1", "note": "[5-fluorouracil]", "values": [{"measurement": "response rates", "setting": "colorectal cancer; single-agent treatment, advanced colorectal cancer", "result": "about 10%"}]}, {"smiles": "O=C(O)C(=O)O.[NH-][C@@H]1CCCC[C@H]1[NH-].[Pt+2]", "note": "[Oxaliplatin]", "values": [{"measurement": "% T/C", "setting": "[1]; [5]", "result": 67, "unit": "%"}, {"measurement": "tumor growth inhibition (TGI)", "setting": "[1]; [5]", "result": 33, "unit": "%"}, {"measurement": "% T/C", "setting": "[1]; [6]", "result": 61, "unit": "%"}, {"measurement": "tumor growth inhibition (TGI)", "setting": "[1]; [6]", "result": 39, "unit": "%"}, {"measurement": "tumor growth inhibition (TGI)", "setting": "HCT116 tumor model; oxaliplatin 5 mg/kg", "result": 21, "unit": "%"}, {"measurement": "tumor growth inhibition (TGI)", "setting": "HCT116 tumor model; oxaliplatin 10 mg/kg", "result": 26, "unit": "%"}, {"measurement": "response rates", "setting": "colorectal cancer; combined with 5-FU and leucovorin, first-line treatment for colorectal cancer", "result": "25-40%"}]}]}
